Experimental data taken from patent publication US10342812B2, “Glycan-based drugs, therapies and biomarkers” (priority 2008, dated 2019).

Tests used:
[1] = test system: 2009H1N1 influenza virus (California strain); assay type: in vivo, chicken
[2] = test system: rhesus rotavirus (RRV); test: Prevention of rotavirus infection in mouse pups with Neu5Ac, methionine, formula-1 (5.7); assay type: in vivo; settings: for Not sick (number) / Sick Rate(%): 20 μl oral at P1, RRV at P2; for Sick (number): 20 μl oral at P1, RRV at P2, 3 weeks; for Odds Ratio: vs saline
[3] = assay type: in vivo, chicken
[4] = test system: rhesus rotavirus (RRV); test: Prevention of rotavirus infection in mouse pups with methionine-Zn (8.1); assay type: in vivo
[5] = test system: A/PR/8/34(H1N1) influenza virus strain; test: Treatment of influenza infection of newborn mice (15.2); assay type: in vivo, mouse; settings: virus at P5, i.p. treatment at day 2, 3, 4 and 5; kept 10 days
Description: Four groups of newborn bulb/c pups were inoculated at day 5 (P5) via nasal and oral administration of 20 μl (microliter) of the A/PR/8/34(H1N1) influenza virus strain (titer: 1:256, diluted 200 times with saline); and were treated at day 2, 3, 4 and 5 via intraperitoneal injection with 100 μl of saline containing 1) saline alone (n=10); 2) 150 microgram of Neu5AcMe; 3) 30 μl of 2% diethyl disulfide plus 200 μg of the Neu5AcMe (n=10); and 4) 30 μl of 2% diethyl disulfide plus 200 μg of the Neu5Ac (n=10). Mice were kept for 10 days after treatment.

[6] = pretreated at E16, virus next day

For `CCSSCC` [Diethyl disulfide], the “Not sick (number)” value [1, 6] was 5, the “Sick (number)” value [1, 6] was 1 and the “Sick Rate(%)” value [1, 6] was 17%. For the same compound, the “Odds Ratio” value ([1]; vs saline) was 0.04.
With `CSCC[C@H](N)C(=O)O` [Metnionine, Methionine] the “Not sick (number)” value [2] was 9, the “Sick Rate(%)” value [2] was 25.0% and the “Sick (number)” value [2] was 3. For the same compound, the “Odds Ratio” value [2] was 0.07.
With `CC(=O)N[C@H]1[C@H]([C@H](O)[C@H](O)CO)OC(O)(C(=O)O)C[C@@H]1O` (some centres unmarked) [Neu5Ac, N-Acetylneuraminic acid] the “Not sick (number)” value [2] was 10, the “Sick Rate(%)” value [2] was 23.1% and the “Sick (number)” value [2] was 3. For the same compound, the “Odds Ratio” value [2] was 0.07, the “side effect of the H5N1 vaccine candidate (still sick)” value ([3]; day 3, saline 87.5%) was 12.5% and the “Odd Ratio” value ([3]; in vivo) was 0.02. For the same compound, the “sick chickens recovered and looked normal” value ([3]; in vivo, po) was 7/8.
For “Methionine-Zinc (Zn) complex [Metnionine-Zn]”, the “Not sick (number)” value ([4]; 20 μl oral at P1, RRV at P2) was 6, the “Sick Rate(%)” value ([4]; 20 μl oral at P1, RRV at P2) was 14% and the “Sick (number)” value ([4]; 20 μl oral at P1, RRV at P2, 3 weeks) was 1. The “Odds Ratio” value ([4]; vs saline) was 0.03.
Work on `COC(=O)[C@]1(O)CC(O)[C@@H](NC(C)=O)C(C(O)[C@H](O)CO)O1` (some centres unmarked) [Neu5AcMe, N-Acetylneuraminic acid methyl ester] yielded a pups survived [5] of 50%.
